Source: ChEMBL document CHEMBL4251553, “Synthesis, anticancer evaluation and pharmacokinetic study of novel 10-O-phenyl ethers of dihydroartemisinin” (Eur J Med Chem, 2017)
Each block holds one compound with its values, some of them ahead of it.

Tests used:
Type in all cases: functional
MDA-MB-231 = assay: Antiproliferative activity against human MDA-MB-231 cells after 96 hrs by MTT assay; settings: MDA-MB-231, 96 h
MCF7 = assay: Antiproliferative activity against human MCF7 cells after 96 hrs by MTT assay; settings: MCF7, 96 h
NCI/ADR-RES = assay: Antiproliferative activity against human MCF7/ADR cells after 96 hrs by MTT assay
[1] = Selectivity ratio of GI50 for human MCF7 cells to GI50 for human MCF7/ADR cells
HL-60 = assay: Antiproliferative activity against human HL60 cells after 96 hrs by MTT assay; settings: HL-60, 96 h
U-937 = assay: Antiproliferative activity against human U937 cells after 96 hrs by MTT assay; settings: U-937, 96 h
K562 = assay: Antiproliferative activity against human K562 cells after 96 hrs by MTT assay; settings: K562, 96 h
NB-4 = assay: Antiproliferative activity against human NB4 cells after 96 hrs by MTT assay; settings: NB-4, 96 h
PC-3 = assay: Antiproliferative activity against human PC3 cells after 96 hrs by MTT assay; settings: PC-3, 96 h
LNCaP = assay: Antiproliferative activity against human LNCAP cells after 96 hrs by MTT assay

SMILES: COc1ccc(C2CC(c3ccc(O[C@H]4O[C@@H]5O[C@@]6(C)CC[C@H]7[C@H](C)CC[C@@H]([C@H]4C)[C@@]57OO6)cc3)=NN2C(C)=O)c(OC)c1 (some centres not stated)
GI50 (MDA-MB-231): 0.24 µM
GI50 (MCF7): 0.5 µM
GI50 (NCI/ADR-RES): 0.025 µM
RatioGI50 [1]: 20

SMILES: COc1ccc(C2CC(c3ccc(O[C@H]4O[C@@H]5O[C@@]6(C)CC[C@H]7[C@H](C)CC[C@@H]([C@H]4C)[C@@]57OO6)cc3)=NN2C(C)=O)cc1 (some centres not stated)
GI50 (MDA-MB-231): 0.5 µM
GI50 (MCF7): 0.32 µM
GI50 (NCI/ADR-RES): 0.028 µM
RatioGI50 [1]: 11.4

SMILES: C[C@H]1[C@@H](Oc2ccc(-c3cc(-c4ccc(Cl)cc4)[nH]n3)cc2)O[C@@H]2O[C@@]3(C)CC[C@H]4[C@H](C)CC[C@@H]1[C@@]24OO3
GI50 (MDA-MB-231): 0.92 µM
GI50 (MCF7): 0.19 µM
GI50 (NCI/ADR-RES): 0.055 µM
RatioGI50 [1]: 3.6

SMILES: C[C@H]1[C@H](Oc2ccc(-c3cc(-c4ccc(Cl)cc4)[nH]n3)cc2)O[C@@H]2O[C@@]3(C)CC[C@H]4[C@H](C)CC[C@@H]1[C@@]24OO3
GI50 (MDA-MB-231): 0.63 µM
GI50 (MCF7): 0.44 µM
GI50 (NCI/ADR-RES): 0.031 µM
RatioGI50 [1]: 14.2

SMILES: CC(=O)N1N=C(c2ccc(O[C@@H]3O[C@@H]4O[C@@]5(C)CC[C@H]6[C@H](C)CC[C@@H]([C@H]3C)[C@@]46OO5)cc2)CC1c1ccccc1 (some centres not stated)
GI50 (MDA-MB-231): 1.23 µM
GI50 (MCF7): 0.57 µM
GI50 (NCI/ADR-RES): 0.05 µM
RatioGI50 [1]: 14.2

GI50 (HL-60): 0.191 µM
GI50 (U-937): 0.91 µM
GI50 (K562): > 10 µM
GI50 (PC-3): > 10 µM
GI50 (LNCaP): > 10 µM
GI50 (MDA-MB-231): 12.6 µM
SMILES: C[C@H]1[C@@H](O)O[C@@H]2O[C@@]3(C)CC[C@H]4[C@H](C)CC[C@@H]1[C@@]24OO3 [ARTENIMOL]
GI50 (NB-4): 0.151 µM
RatioGI50 [1]: 10

SMILES: CC(=O)N1N=C(c2ccc(O[C@H]3O[C@@H]4O[C@@]5(C)CC[C@H]6[C@H](C)CC[C@@H]([C@H]3C)[C@@]46OO5)cc2)CC1c1ccc(Cl)cc1 (some centres not stated)
GI50 (MDA-MB-231): 0.16 µM
GI50 (MCF7): 0.22 µM
GI50 (NCI/ADR-RES): 0.03 µM
RatioGI50 [1]: 7.3

SMILES: C[C@H]1[C@@H](Oc2ccc(-c3cc(-c4ccc(Br)cc4)[nH]n3)cc2)O[C@@H]2O[C@@]3(C)CC[C@H]4[C@H](C)CC[C@@H]1[C@@]24OO3
GI50 (MDA-MB-231): 0.41 µM
GI50 (MCF7): 0.34 µM
GI50 (NCI/ADR-RES): 0.033 µM
RatioGI50 [1]: 10.3

SMILES: COc1ccc(-c2cc(-c3ccc(O[C@H]4O[C@@H]5O[C@@]6(C)CC[C@H]7[C@H](C)CC[C@@H]([C@H]4C)[C@@]57OO6)cc3)n[nH]2)c(OC)c1
GI50 (MDA-MB-231): 0.67 µM
GI50 (MCF7): 0.33 µM
GI50 (NCI/ADR-RES): 0.033 µM
RatioGI50 [1]: 10

SMILES: COc1ccc(C2CC(c3ccc(O[C@@H]4O[C@@H]5O[C@@]6(C)CC[C@H]7[C@H](C)CC[C@@H]([C@H]4C)[C@@]57OO6)cc3)=NN2C(C)=O)c(OC)c1 (some centres not stated)
GI50 (MDA-MB-231): 0.58 µM
GI50 (MCF7): 0.38 µM
GI50 (NCI/ADR-RES): 0.058 µM
RatioGI50 [1]: 6.6

SMILES: C[C@H]1[C@H](Oc2ccc(-c3cc(-c4ccccc4)[nH]n3)cc2)O[C@@H]2O[C@@]3(C)CC[C@H]4[C@H](C)CC[C@@H]1[C@@]24OO3
GI50 (MDA-MB-231): 0.96 µM
GI50 (MCF7): 0.26 µM
GI50 (NCI/ADR-RES): 0.019 µM
RatioGI50 [1]: 13.7

SMILES: CC(=O)N1N=C(c2ccc(O[C@@H]3O[C@@H]4O[C@@]5(C)CC[C@H]6[C@H](C)CC[C@@H]([C@H]3C)[C@@]46OO5)cc2)CC1c1ccc(Cl)cc1 (some centres not stated)
GI50 (MDA-MB-231): 0.4 µM
GI50 (MCF7): 0.5 µM
GI50 (NCI/ADR-RES): 0.035 µM
RatioGI50 [1]: 14.3
